From patent publication US10508085B2, “Compounds and methods for IDO and TDO modulation, and indications therefor” (Plexxikon Inc., priority 2016, dated 2019)
Where two headings read alike, the source gives them in different places.

Key:
[1] = molecular target: T1, Human Indoleamine 2,3-dioxygenase (IDO) (Homo sapiens, UniProt P14902); assay: Human IDO enzymatic assay (kynurenine level); type: biochemical; conditions: 6 nM IDO, 10 μM L-Trp; geometric mean; read-out: IDO1 GMean: IC50 (μM) (Biochemical Assay)
T1 construct: His tag (N); made in house; host or cells: E. coli
In short: (§1)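 Reactions were stopped with TCA, converting N-formylkynurenine to kynurenine for quantitation, with IC50 by nonlinear regression. IDO: 6 nM enzyme, 10 μM L-Trp, 20 min RT. TDO: 1 nM enzyme, 350 μM L-Trp, 70 min RT, both in pH 6.5 buffer.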

[2] = molecular target: T2, Human Tryptophan 2,3-dioxygenase (TDO) (Homo sapiens, UniProt P48775); assay: Human TDO enzymatic assay (kynurenine level); type: biochemical; conditions: 1 nM TDO, 350 μM L-Trp; geometric mean; read-out: TDO GMean: IC50 (μM) (Biochemical Assay)
T2 construct: His tag (N); made in house; host or cells: E. coli
In short: as §1

[3] = molecular target: T3, human IDO (IDO1-expressing HEK293 cells) (Homo sapiens, UniProt P14902); assay: Cell based kynurenine assay, IDO1-expressing HEK293 cell clones; conditions: IDO1-expressing HEK293 cells, geometric mean, read-out: HEK293 IDO1 Kynurenine GMean IC50 (μM) (Cellular Assay)
T3 construct: expressed in transfected cells
In short: (§2)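 Supernatant kynurenine was measured after 24 h exposure of stably transfected HEK293 cells (human IDO1 or TDO, 2.5×10^4/well) to serially diluted compound. Percent inhibition used 0.2% DMSO cell wells as high and media-only wells as low controls; IC50 fitted by nonlinear regression.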

[4] = molecular target: T4, human TDO (TDO-expressing HEK293 cells) (Homo sapiens, UniProt P48775); assay: Cell based kynurenine assay, TDO-expressing HEK293 cell clones; conditions: TDO-expressing HEK293 cells, geometric mean, read-out: HEK293 TDO Kynurenine GMean IC50 (μM) (Cellular Assay)
T4 construct: expressed in transfected cells
In short: as §2

T3 sequence (P14902 whole entry): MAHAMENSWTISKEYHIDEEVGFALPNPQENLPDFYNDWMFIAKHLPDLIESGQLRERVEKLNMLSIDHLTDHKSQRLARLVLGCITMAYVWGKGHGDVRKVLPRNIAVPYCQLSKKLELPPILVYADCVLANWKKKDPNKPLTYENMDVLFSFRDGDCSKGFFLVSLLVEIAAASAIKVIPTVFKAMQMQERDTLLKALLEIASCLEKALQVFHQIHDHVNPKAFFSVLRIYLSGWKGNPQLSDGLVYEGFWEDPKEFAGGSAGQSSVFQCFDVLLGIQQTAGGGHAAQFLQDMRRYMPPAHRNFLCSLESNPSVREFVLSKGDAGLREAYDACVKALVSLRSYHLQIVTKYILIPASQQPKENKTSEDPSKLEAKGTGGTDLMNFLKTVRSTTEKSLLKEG
T1 sequence (P14902 whole entry): as above
T2 sequence (P48775 whole entry): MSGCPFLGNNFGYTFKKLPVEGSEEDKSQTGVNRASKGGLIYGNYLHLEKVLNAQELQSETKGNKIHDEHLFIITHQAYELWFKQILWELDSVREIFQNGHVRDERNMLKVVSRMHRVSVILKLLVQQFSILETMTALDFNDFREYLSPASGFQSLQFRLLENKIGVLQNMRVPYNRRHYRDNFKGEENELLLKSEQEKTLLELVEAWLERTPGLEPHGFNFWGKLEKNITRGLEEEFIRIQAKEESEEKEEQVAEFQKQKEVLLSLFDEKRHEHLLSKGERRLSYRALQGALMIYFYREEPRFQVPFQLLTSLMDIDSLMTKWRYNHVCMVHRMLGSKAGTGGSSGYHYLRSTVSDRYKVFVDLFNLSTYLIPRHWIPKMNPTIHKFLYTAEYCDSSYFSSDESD
T4 sequence (P48775 whole entry): as above

| Compound | IC50 [1] | IC50 [2] | IC50 ([3]; 24 hours incubation) | IC50 ([4]; 24 hours incubation) | IC50 ([3]; 24 hours) | IC50 ([4]; 24 hours) |
| --- | --- | --- | --- | --- | --- | --- |
| OC(c1cc(Cl)cc2cn[nH]c12)C1(C2CCC2)CCC1 (centres unmarked) [Compound P-0186, [1,1′-bi(cyclobutan)]-1-yl(5-chloro-1H-indazol-7-yl)methanol] | 0.0001 to 10 µM | 0.0001 to 10 µM | 0.0001 to 10 µM | 0.0001 to 10 µM | – | – |
| OC1(c2cc(Cl)cc3cn[nH]c23)C2CC3CC(C2)CC1C3 [Compound P-0380, (1R,2R,5S)-2-(5-chloro-1H-indazol-7-yl)adamantan-2-ol] | 0.0001 to 10 µM | 0.0001 to 10 µM | > 10 µM | 0.0001 to 10 µM | – | – |
| CS(=O)(=O)NC1CC(O)(c2cc(Cl)cc3cn[nH]c23)C1 (centres unmarked) [Compound P-0038, N-(3-(5-chloro-1H-indazol-7-yl)-3-hydroxycyclobutyl)methanesulfonamide] | 0.0001 to 10 µM | 0.0001 to 10 µM | > 10 µM | 0.0001 to 10 µM | – | – |
| CC1(C(O)c2cc3c(c4cn[nH]c24)CCCC3)CCCCC1 (centres unmarked) [Compound P-0050, (1-methylcyclohexyl)(6,7,8,9-tetrahydro-3H-benzo[e]indazol-4-yl)methanol] | 0.0001 to 10 µM | 0.0001 to 10 µM | 0.0001 to 10 µM | > 10 µM | – | – |
| CC1(C(O)c2cc(Cl)cc3[nH]ncc23)CCCCC1 (centres unmarked) [Compound P-0145, (6-chloro-1H-indazol-4-yl)(1-methylcyclohexyl)methanol] | 0.0001 to 10 µM | 0.0001 to 10 µM | > 10 µM | 0.0001 to 10 µM | – | – |
| COC(=O)N1CCC(C(F)(F)C(O)c2cc(Cl)cc3cn[nH]c23)CC1 (centres unmarked) [Compound P-0141, methyl 4-(2-(5-chloro-1H-indazol-7-yl)-1,1-difluoro-2-hydroxyethyl)piperidine-1-carboxylate] | 0.0001 to 10 µM | 0.0001 to 10 µM | 0.0001 to 10 µM | 0.0001 to 10 µM | – | – |
| OC(c1cc(Cl)cc2cn[nH]c12)C1(C(F)(F)F)CCC1 (centres unmarked) [Compound P-0120, (5-chloro-1H-indazol-7-yl)(1-(trifluoromethyl)cyclobutyl)methanol] | 0.0001 to 10 µM | 0.0001 to 10 µM | 0.0001 to 10 µM | 0.0001 to 10 µM | – | – |
| CC(C)(C1CCN(C(=O)NC2CCCC2)CC1)C(O)c1cc(Cl)cc2cn[nH]c12 (centres unmarked) [Compound P-0316, 4-(1-(5-chloro-1H-indazol-7-yl)-1-hydroxy-2-methylpropan-2-yl)-N-cyclopentylpiperidine-1-carboxamide] | 0.0001 to 10 µM | 0.0001 to 10 µM | 0.0001 to 10 µM | 0.0001 to 10 µM | – | – |
| CC1(C)CN(c2c(F)c(Cl)cc3cn[nH]c23)CCN1S(C)(=O)=O [Compound P-0092, 5-chloro-7-(3,3-dimethyl-4-(methylsulfonyl)piperazin-1-yl)-6-fluoro-1H-indazole] | 0.0001 to 10 µM | 0.0001 to 10 µM | 0.0001 to 10 µM | 0.0001 to 10 µM | – | – |
| CCC(CC)C(O)c1cc(Cl)cc2cn[nH]c12 (centres unmarked) [Compound P-0268, 1-(5-chloro-1H-indazol-7-yl)-2-ethylbutan-1-ol] | 0.0001 to 10 µM | 0.0001 to 10 µM | 0.0001 to 10 µM | 0.0001 to 10 µM | – | – |
| CC(C)(C1CCN(C(=O)Nc2ccc(Cl)cc2)CC1)C(O)c1cc(Cl)cc2cn[nH]c12 (centres unmarked) [Compound P-0361, 4-(1-(5-chloro-1H-indazol-7-yl)-1-hydroxy-2-methylpropan-2-yl)-N-(4-chlorophenyl) piperidine-1-carboxamide] | 0.0001 to 10 µM | 0.0001 to 10 µM | 0.0001 to 10 µM | 0.0001 to 10 µM | – | – |
| OC1(c2cc(Cl)cc3cn[nH]c23)CC2(COC2)C1 [Compound P-0039, 6-(5-chloro-1H-indazol-7-yl)-2-oxaspiro[3.3]heptan-6-ol] | 0.0001 to 10 µM | 0.0001 to 10 µM | 0.0001 to 10 µM | 0.0001 to 10 µM | – | – |
| CC(C)(C1CCN(C(=O)Nc2ccccc2)CC1)C(O)c1cc(Cl)cc2cn[nH]c12 (centres unmarked) [Compound P-0317, 4-(1-(5-chloro-1H-indazol-7-yl)-1-hydroxy-2-methylpropan-2-yl)-N-phenylpiperidine-1-carboxamide] | 0.0001 to 10 µM | 0.0001 to 10 µM | 0.0001 to 10 µM | 0.0001 to 10 µM | – | – |
| CC(C)S(=O)(=O)N1CCC(C(C)(C)C(O)c2cc(Cl)cc3cn[nH]c23)CC1 (centres unmarked) [Compound P-0307, 1-(5-chloro-1H-indazol-7-yl)-2-(1-(isopropylsulfonyl)piperidin-4-yl)-2-methylpropan-1-ol] | 0.0001 to 10 µM | 0.0001 to 10 µM | 0.0001 to 10 µM | 0.0001 to 10 µM | – | – |
| OC(c1c(F)c(Cl)cc2cn[nH]c12)C(F)(F)C1CCOCC1 (centres unmarked) [Compound P-0262, 1-(5-chloro-6-fluoro-1H-indazol-7-yl)-2,2-difluoro-2-(tetrahydro-2H-pyran-4-yl)ethan-1-ol] | 0.0001 to 10 µM | 0.0001 to 10 µM | 0.0001 to 10 µM | 0.0001 to 10 µM | – | – |

Next, values leading:

| IC50 [1] | IC50 [2] | IC50 ([3]; 24 hours incubation) | IC50 ([4]; 24 hours incubation) | IC50 ([3]; 24 hours) | IC50 ([4]; 24 hours) | Compound |
| --- | --- | --- | --- | --- | --- | --- |
| 0.0001 to 10 µM | 0.0001 to 10 µM | – | – | 0.0001 to 10 µM | 0.0001 to 10 µM | CC(C)(C1CCN(C(=O)CC2CCS(=O)(=O)CC2)CC1)[C@H](O)c1cc(Cl)cc2cn[nH]c12 [Compound P-0502, (S)-1-(4-(1-(5-chloro-1H-indazol-7-yl)-1-hydroxy-2-methylpropan-2-yl)piperidin-1-yl)-2-(1,1-dioxidotetrahydro-2H-thiopyran-4-yl)ethan-1-one] |
| 0.0001 to 10 µM | 0.0001 to 10 µM | – | – | 0.0001 to 10 µM | 0.0001 to 10 µM | CC(C)(C1CCN(C(=O)Nc2ccccc2)CC1)[C@H](O)c1cc(Cl)cc2cn[nH]c12 [Compound P-0563, (S)-4-(1-(5-chloro-1H-indazol-7-yl)-1-hydroxy-2-methylpropan-2-yl)-N-phenylpiperidine-1-carboxamide] |
| 0.0001 to 10 µM | 0.0001 to 10 µM | – | – | 0.0001 to 10 µM | 0.0001 to 10 µM | COCCNC(=O)N1CCC(C(C)(C)[C@H](O)c2cc(Cl)cc3cn[nH]c23)CC1 [Compound P-0446, (S)-4-(1-(5-chloro-1H-indazol-7-yl)-1-hydroxy-2-methylpropan-2-yl)-N-(2-methoxyethyl) piperidine-1-carboxamide] |
| 0.0001 to 10 µM | 0.0001 to 10 µM | – | – | 0.0001 to 10 µM | 0.0001 to 10 µM | CC(C)CNC(=O)N1CCC(C(C)(C)[C@H](O)c2cc(Cl)cc3cn[nH]c23)CC1 [Compound P-0564, (S)-4-(1-(5-chloro-1H-indazol-7-yl)-1-hydroxy-2-methylpropan-2-yl)-N-isobutylpiperidine-1-carboxamide] |
| 0.0001 to 10 µM | 0.0001 to 10 µM | – | – | 0.0001 to 10 µM | 0.0001 to 10 µM | CC(C)(C1CCN(C(=O)Nc2ccc(C#N)cc2)CC1)[C@H](O)c1cc(Cl)cc2cn[nH]c12 [Compound P-0447, (S)-4-(1-(5-chloro-1H-indazol-7-yl)-1-hydroxy-2-methylpropan-2-yl)-N-(4-cyanophenyl) piperidine-1-carboxamide] |
| 0.0001 to 10 µM | 0.0001 to 10 µM | – | – | 0.0001 to 10 µM | 0.0001 to 10 µM | CC(C)(C1CCN(C(=O)NCCO)CC1)[C@H](O)c1cc(Cl)cc2cn[nH]c12 [Compound P-0499, (S)-4-(1-(5-chloro-1H-indazol-7-yl)-1-hydroxy-2-methylpropan-2-yl)-N-(2-hydroxyethyl)piperidine-1-carboxamide] |
| 0.0001 to 10 µM | 0.0001 to 10 µM | – | – | 0.0001 to 10 µM | 0.0001 to 10 µM | CCCC(=O)N1CCC(C(C)(C)[C@H](O)c2cc(Cl)cc3cn[nH]c23)CC1 [Compound P-0543, (S)-1-(4-(1-(5-chloro-1H-indazol-7-yl)-1-hydroxy-2-methylpropan-2-yl)piperidin-1-yl)butan-1-one] |
| 0.0001 to 10 µM | 0.0001 to 10 µM | – | – | 0.0001 to 10 µM | 0.0001 to 10 µM | CCNC(=O)N1CCC(C(C)(C)[C@H](O)c2cc(Cl)cc3cn[nH]c23)CC1 [Compound P-0550, (S)-4-(1-(5-chloro-1H-indazol-7-yl)-1-hydroxy-2-methylpropan-2-yl)-N-ethylpiperidine-1-carboxamide] |
| 0.0001 to 10 µM | 0.0001 to 10 µM | – | – | 0.0001 to 10 µM | 0.0001 to 10 µM | CC(C)(C1CCN(C(=O)C2CCOCC2)CC1)C(O)c1cc(Cl)cc2cn[nH]c12 (centres unmarked) [Compound P-0458, (4-(1-(5-chloro-1H-indazol-7-yl)-1-hydroxy-2-methylpropan-2-yl)piperidin-1-yl)(tetrahydro-2H-pyran-4-yl)methanone] |
| 0.0001 to 10 µM | 0.0001 to 10 µM | – | – | 0.0001 to 10 µM | 0.0001 to 10 µM | C#CCNC(=O)N1CCC(C(C)(C)[C@H](O)c2cc(Cl)cc3cn[nH]c23)CC1 [Compound P-0568, (S)-4-(1-(5-chloro-1H-indazol-7-yl)-1-hydroxy-2-methylpropan-2-yl)-N-(prop-2-yn-1-yl)piperidine-1-carboxamide] |
| 0.0001 to 10 µM | 0.0001 to 10 µM | – | – | 0.0001 to 10 µM | 0.0001 to 10 µM | CC(C)(C1CCN(C(=O)NCC(F)(F)F)CC1)[C@H](O)c1c(F)c(Cl)cc2cn[nH]c12 [Compound P-0511, (S)-4-(1-(5-chloro-6-fluoro-1H-indazol-7-yl)-1-hydroxy-2-methylpropan-2-yl)-N-(2,2,2-trifluoroethyl) piperidine-1-carboxamide] |
